Results on 15 compounds are retold here after patent US12187709B2 (Genentech, Inc., priority 2021, dated 2025).

The target in assay [1] is Human Cbl-b (residues 40-426) (Homo sapiens (Human), UniProt Q13191). Nature of the assay: Cbl-b SPR assay. The class given is binding. To be noted: for Fold of selectivity: C-cbl SPR Kd vs Cbl-b SPR Kd; for Kd: SPR, 20° C. The method, boiled down:
(§1)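 Binding was measured by SPR and fitted to a 1:1 model from multi-cycle kinetics with double referencing, 6 concentrations in 2-fold dilution. Alternatively, single-cycle titrations up to 500 nM (120 s contact) were fitted with kd fixed from a single-exponential fit of chaser-measured % compound bound versus time.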
(SPR reads the build-up and loss of mass on a sensor chip optically.)

In the next assay the target is c-Cbl (residues 47-435) (Homo sapiens (Human), UniProt P22681). The experiment in a line: c-Cbl SPR assay. Format: binding. To be noted: 20° C. The method, boiled down:
as §1

The next assay deals with c-Cbl (Homo sapiens (Human), UniProt P22681). The experiment in a line: C-Cbl LCK Ub TR-FRET assay (C-cbl Lck HTRF). Format: biochemical. The method, boiled down: (§2)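 Signal is read once the detection mix has stood 20 min at ambient temperature. Curves are anchored by DMSO as maximum and by omission of LCK as minimum.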
c-Cbl, sequence (P22681 47-435): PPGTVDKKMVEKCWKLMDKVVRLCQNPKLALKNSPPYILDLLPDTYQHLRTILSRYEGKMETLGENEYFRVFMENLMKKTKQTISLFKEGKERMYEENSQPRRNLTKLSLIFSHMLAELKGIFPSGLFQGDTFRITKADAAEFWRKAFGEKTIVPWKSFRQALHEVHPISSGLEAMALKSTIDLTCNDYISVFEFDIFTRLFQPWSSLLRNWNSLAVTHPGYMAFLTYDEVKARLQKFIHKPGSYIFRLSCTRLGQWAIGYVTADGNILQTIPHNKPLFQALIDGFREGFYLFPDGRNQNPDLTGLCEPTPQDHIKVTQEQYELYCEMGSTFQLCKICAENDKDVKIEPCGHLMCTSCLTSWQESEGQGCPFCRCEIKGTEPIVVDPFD
On the technique in general: TR-FRET usually uses a lanthanide donor and a delayed reading to cut background.

The target in a further assay is Cbl-b (Homo sapiens (Human), UniProt Q13191). Nature of the assay: Cbl-b LCK Ub TR-FRET assay (Cbl-b Lck HTRF). The class given is biochemical. To be noted: for IC50: Cbl-b LCK Ub TR-FRET; for fold-selectivity (Cbl-b over C-cbl) / (fold-selectivity) Cbl-b and C-Cbl Selectivity: ratio C-cbl Lck HTRF IC50 / Cbl-b Lck HTRF IC50. The method, boiled down:
as §2

Human Cbl-b (residues 40-426), sequence (Q13191 40-426): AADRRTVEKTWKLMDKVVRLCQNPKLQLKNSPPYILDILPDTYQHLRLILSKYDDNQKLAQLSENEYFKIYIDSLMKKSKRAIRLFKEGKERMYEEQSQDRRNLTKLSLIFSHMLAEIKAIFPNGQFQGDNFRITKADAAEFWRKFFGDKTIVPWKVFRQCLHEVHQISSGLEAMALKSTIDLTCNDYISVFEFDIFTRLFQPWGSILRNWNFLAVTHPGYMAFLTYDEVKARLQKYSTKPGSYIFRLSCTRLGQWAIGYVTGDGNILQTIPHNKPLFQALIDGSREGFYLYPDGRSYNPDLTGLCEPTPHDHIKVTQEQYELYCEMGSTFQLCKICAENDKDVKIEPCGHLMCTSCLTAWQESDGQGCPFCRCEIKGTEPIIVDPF
Cbl-b, sequence (Q13191 40-426): as above
c-Cbl (residues 47-435), sequence (P22681 47-435): as the sequence (P22681 47-435) above

In general, Kd refers to the equilibrium constant for the complex coming apart. Read a high Kd as a looser complex. Usually IC50 stands for the midpoint of a concentration-inhibition curve. In assay [1], `Cn1cnnc1[C@]1(c2cccc(N3Cc4c(cc(CNC5(C)CCC5)cc4C(F)(F)F)C3=O)c2)C[C@@H](OC(F)F)C1` [Compound 334, 2-(3-((1r,3r)-3-(difluoromethoxy)-1-(4-methyl-4H-1,2,4-triazol-3-yl)cyclobutyl)phenyl)-6-(((1-methylcyclobutyl)amino)methyl)-4-(trifluoromethyl)isoindolin-1-one] came in with a Fold of selectivity of 26× and a Kd of 0.85 nM. The Kd at c-Cbl (residues 47-435) worked out at 22 nM. The compound also gave an IC50 at c-Cbl of 14 nM. Moreover, on Cbl-b, half-maximal inhibition (IC50) was put at 5.9 nM and the “fold-selectivity (Cbl-b over C-cbl)” value was 2.5x.
Regarding `Cn1cnnc1[C@]1(c2cccc(N3Cc4c(cc(CNC5(C)CCC5)cc4C(F)(F)F)C3=O)c2)C[C@H](OC(F)F)C1` [Compound 335, 2-(3-((1s,3s)-3-(difluoromethoxy)-1-(4-methyl-4H-1,2,4-triazol-3-yl)cyclobutyl)phenyl)-6-(((1-methylcyclobutyl)amino)methyl)-4-(trifluoromethyl)isoindolin-1-one], in assay [1], the Fold of selectivity is given as 17× and the dissociation constant Kd was determined as 2.6 nM. This compound registered a Kd at c-Cbl (residues 47-435) of 45 nM. At c-Cbl, the 50% inhibitory concentration (IC50) stood at 26 nM. Also, on Cbl-b, it took 8.8 nM to reach half-maximal inhibition (IC50) and the “fold-selectivity (Cbl-b over C-cbl)” value worked out at 3.0x.
Compound `CCNc1cc([C@]2(c3nncn3C)C[C@H](C)C2)cc(N2Cc3c(cc(CNC4(C)CCC4)cc3C(F)(F)F)C2=O)c1F` [Compound 336, 2-(3-(ethylamino)-2-fluoro-5-((1r,3r)-3-methyl-1-(4-methyl-4H-1,2,4-triazol-3-yl)cyclobutyl)phenyl)-6-(((1-methylcyclobutyl)amino)methyl)-4-(trifluoromethyl)isoindolin-1-one] yielded a Fold of selectivity in assay [1] of 4.1×. Also, the dissociation constant (Kd) in assay [1] is 3.2 nM; on c-Cbl (residues 47-435), 13 nM. Further, the IC50 on c-Cbl is 9.1 nM; at Cbl-b, 7.4 nM. Besides, the “fold-selectivity (Cbl-b over C-cbl)” value on Cbl-b was 1.2x.
Turning to `CCNc1cc([C@]2(c3nncn3C)C[C@@H](C)C2)cc(N2Cc3c(cc(CNC4(C)CCC4)cc3C(F)(F)F)C2=O)c1F` [Compound 337, 2-(3-(ethylamino)-2-fluoro-5-((1s,3s)-3-methyl-1-(4-methyl-4H-1,2,4-triazol-3-yl)cyclobutyl)phenyl)-6-(((1-methylcyclobutyl)amino)methyl)-4-(trifluoromethyl)isoindolin-1-one], in assay [1], the Fold of selectivity turned out to be 3.4× and the Kd was determined as 1.9 nM. Besides, at c-Cbl (residues 47-435), the dissociation constant (Kd) was 6.5 nM. The midpoint of inhibition on c-Cbl, the IC50, lay at 7.8 nM. Besides, at Cbl-b, the half-maximal inhibitory concentration (IC50) stood at 6.2 nM and the “fold-selectivity (Cbl-b over C-cbl)” value turned out to be 1.2x.
With `Cn1cnnc1[C@]1(c2cccc(N3Cc4c(cc(CNC5(C)CCC5)cc4C(F)(F)F)C3=O)c2)C[C@]2(CCCO2)C1` [Compound 340, 2-(3-((2s, 4r)-2-(4-methyl-4H-1,2,4-triazol-3-yl)-5-oxaspiro[3.4]octan-2-yl)phenyl)-6-(((1-methylcyclobutyl)amino)methyl)-4-(trifluoromethyl) isoindolin-1-one], the Fold of selectivity in assay [1] was 24×. The Kd was 82 nM in assay [1] and 1900 nM at c-Cbl (residues 47-435). Besides, the IC50 against c-Cbl was 1100 nM; against Cbl-b, 110 nM. The “fold-selectivity (Cbl-b over C-cbl)” value at Cbl-b is given as 10x.
In assay [1], `Cn1cnnc1[C@]1(c2cccc(N3Cc4c(cc(CNC5(C)CCC5)cc4C(F)(F)F)C3=O)c2)C[C@@]2(CCCO2)C1` [Compound 341, 2-(3-((2r, 4s)-2-(4-methyl-4H-1,2,4-triazol-3-yl)-5-oxaspiro [3.4]octan-2-yl)phenyl)-6-(((1-methylcyclobutyl)amino)methyl)-4-(trifluoromethyl) isoindolin-1-one] had a Fold of selectivity of 11× and a dissociation constant (Kd) of 11 nM. This compound came in with a Kd at c-Cbl (residues 47-435) of 120 nM. Besides, at c-Cbl, the IC50 was determined as 100 nM. Moreover, at Cbl-b, half-maximal inhibition (IC50) was put at 13 nM and the “fold-selectivity (Cbl-b over C-cbl)” value is listed as 8.4x.
As for `CC(=O)[C@H]1C[C@@](c2cccc(N3Cc4c(cc(CNC5(C)CCC5)cc4C(F)(F)F)C3=O)c2)(c2nncn2C)C1` [Compound 346, 2-(3-((1s,3s)-3-acetyl-1-(4-methyl-4H-1,2,4-triazol-3-yl)cyclobutyl)phenyl)-6-(((1-methylcyclobutyl)amino)methyl)-4-(trifluoromethyl)isoindolin-1-one], in assay [1], the Fold of selectivity is on record as 5.4× and binding was put at a Kd of 35 nM. On c-Cbl (residues 47-435), this compound returned an equilibrium dissociation constant (Kd) of 200 nM. The same compound came in with an IC50 against c-Cbl of 190 nM. Further, at Cbl-b, the IC50 is 40 nM and the “fold-selectivity (Cbl-b over C-cbl)” value is on record as 4.6x.
Take `CC(=O)[C@H]1C[C@](c2cccc(N3Cc4c(cc(CNC5(C)CCC5)cc4C(F)(F)F)C3=O)c2)(c2nncn2C)C1` [Compound 347, 2-(3-((1r,3r)-3-acetyl-1-(4-methyl-4H-1,2,4-triazol-3-yl)cyclobutyl)phenyl)-6-(((1-methylcyclobutyl)amino)methyl)-4-(trifluoromethyl)isoindolin-1-one]: in assay [1], the Fold of selectivity was found to be 11× and the Kd is 3 nM. Binding on c-Cbl (residues 47-435) was put at a Kd of 33 nM. Further, on c-Cbl, half-maximal inhibition (IC50) was put at 30 nM. Besides, at Cbl-b, half-maximal inhibition (IC50) was put at 10 nM and the “fold-selectivity (Cbl-b over C-cbl)” value is given as 3x.
In assay [1], `Cn1cnnc1[C@]1(c2cccc(N3Cc4c(cc(CNC5(C)CCC5)cc4C(F)(F)F)C3=O)c2)C[C@H](OCF)C1` [Compound 370, 2-(3-((1s,3s)-3-(fluoromethoxy)-1-(4-methyl-4H-1,2,4-triazol-3-yl)cyclobutyl)phenyl)-6-(((1-methylcyclobutyl)amino)methyl)-4-(trifluoromethyl)isoindolin-1-one] registered a Fold of selectivity of 9× and an equilibrium dissociation constant (Kd) of 4.2 nM. The dissociation constant Kd at c-Cbl (residues 47-435) was 39 nM. On c-Cbl, this compound yielded an IC50 of 42 nM. In addition, at Cbl-b, the half-inhibitory concentration (IC50) stood at 13 nM and the “fold-selectivity (Cbl-b over C-cbl)” value was found to be 3.2x.
The compound `Cn1cnnc1[C@]1(c2cccc(N3Cc4c(cc(CNC5(C)CCC5)cc4C(F)(F)F)C3=O)c2)C[C@@H](OCF)C1` [Compound 371, 2-(3-((1r,3r)-3-(fluoromethoxy)-1-(4-methyl-4H-1,2,4-triazol-3-yl)cyclobutyl)phenyl)-6-(((1-methylcyclobutyl)amino)methyl)-4-(trifluoromethyl)isoindolin-1-one] had a Fold of selectivity in assay [1] of 7.8×. The Kd in assay [1] was 48 nM; on c-Cbl (residues 47-435), 380 nM. Further, the 50% inhibitory concentration (IC50) at c-Cbl was found to be 42 nM; on Cbl-b, 8.3 nM. In addition, on Cbl-b, the “fold-selectivity (Cbl-b over C-cbl)” value is 5.0x.
For the compound `CC[C@H]1C[C@@](c2cccc(N3Cc4c(Cl)cc(CNC5(C)CCC5)cc4C3=O)c2)(c2nncn2C)C1` [Compound 374, 4-chloro-2-(3-((1r,3s)-3-ethyl-1-(4-methyl-4H-1,2,4-triazol-3-yl)cyclobutyl)phenyl)-6-(((1-methylcyclobutyl)amino)methyl)isoindolin-1-one], in assay [1], the Fold of selectivity turned out to be 11×. For the same compound, the Kd in assay [1] turned out to be 0.95 nM; on c-Cbl (residues 47-435), 10 nM. In addition, the half-inhibitory concentration (IC50) at c-Cbl turned out to be 14 nM; at Cbl-b, 6.6 nM. Besides, on Cbl-b, the “fold-selectivity (Cbl-b over C-cbl)” value worked out at 2.0x.
On to `CC[C@H]1C[C@](c2cccc(N3Cc4c(Cl)cc(CNC5(C)CCC5)cc4C3=O)c2)(c2nncn2C)C1` [Compound 375, 4-chloro-2-(3-((1s,3r)-3-ethyl-1-(4-methyl-4H-1,2,4-triazol-3-yl)cyclobutyl)phenyl)-6-(((1-methylcyclobutyl)amino)methyl)isoindolin-1-one], for which, in assay [1], the Fold of selectivity was 11× and the Kd was found to be 1 nM. Moreover, the dissociation constant Kd on c-Cbl (residues 47-435) worked out at 11 nM. In addition, half-maximal inhibition at c-Cbl (IC50) required 16 nM. Also, on Cbl-b, the half-inhibitory concentration (IC50) came out at 6.4 nM and the “fold-selectivity (Cbl-b over C-cbl)” value came to 2.5x.
In assay [1], `CCCN1CC(c2cc3c(c(C(F)(F)F)c2)CN(c2cccc([C@H](c4nncn4C)C4COC4)c2)C3=O)C1` [Compound 386, (R)-2-(3-((4-methyl-4H-1,2,4-triazol-3-yl)(oxetan-3-yl)methyl)phenyl)-6-(1-propylazetidin-3-yl)-4-(trifluoromethyl)isoindolin-1-one] showed a Fold of selectivity of 2.4× and a Kd of 110 nM. Further, on c-Cbl (residues 47-435), binding was put at a Kd of 320 nM. Moreover, on c-Cbl, the IC50 came to 290 nM. In addition, at Cbl-b, the IC50 was determined as 110 nM and the “fold-selectivity (Cbl-b over C-cbl)” value amounted to 2.6x.
In assay [1], `Cn1cnnc1[C@]1(c2cccc(N3Cc4c(cc(CNC5(C)CCC5)cc4C(F)(F)F)C3=O)c2)C[C@@](O)(C(F)F)C1` [Compound 405, 2-(3-((1s,3s)-3-(difluoromethyl)-3-hydroxy-1-(4-methyl-4H-1,2,4-triazol-3-yl)cyclobutyl)phenyl)-6-(((1-methylcyclobutyl)amino)methyl)-4-(trifluoromethyl)isoindolin-1-one] showed a Fold of selectivity of 7.7×. The equilibrium dissociation constant (Kd) in assay [1] stood at 9.4 nM; at c-Cbl (residues 47-435), 75 nM. Besides, the IC50 on c-Cbl turned out to be 77 nM; against Cbl-b (Example 121), 15 nM. Moreover, the “(fold-selectivity) Cbl-b and C-Cbl Selectivity” value at Cbl-b was determined as 5.3x.
In assay [1], `CO[C@H]1C[C@](c2cccc(N3Cc4c(cc(CNC5CCC5)cc4C(F)(F)F)C3=O)c2)(c2nncn2C)C1` [Compound 414, 6-((cyclobutylamino)methyl)-2-(3-((1r,3r)-3-methoxy-1-(4-methyl-4H-1,2,4-triazol-3-yl)cyclobutyl)phenyl)-4-(trifluoromethyl)isoindolin-1-one] yielded a Fold of selectivity of 7.7×. Further, the Kd is 10 nM in assay [1] and 77 nM at c-Cbl (residues 47-435). Moreover, the IC50 at c-Cbl is 50 nM; on Cbl-b (Example 121) it was 9.4 nM. At Cbl-b, the “(fold-selectivity) Cbl-b and C-Cbl Selectivity” value is reported as 5.2x.
